≈ marks a conversion by molar mass, not a printed value. Read-outs that look alike come from different tables or passages of the source.
How the values were obtained:
DNA gyrase from E. coli = target: T1, DNA gyrase from E. coli (Escherichia coli, UniProt P0AES4+P0AES6); experiment: Inhibitory activities on E. coli DNA gyrase (Inspiralis assay); type: biochemical
T1 construct: purchased Inspiralis
Description: Inhibitory potencies were investigated utilizing the Inspiralis assay on streptavidin-coated 96-well microtiter plates. First, the plates were rehydrated with buffer (20 mM Tris-HCl with pH 7.6, 0.01% w/v BSA, 0.05% v/v Tween 20, 137 mM NaCl) and the biotinylated oligonucleotide was then immobilized. After washing off the unbound oligonucleotide, the enzyme test was performed. […] Reaction solutions were incubated at 37° C. for 30 min. After that, the TF buffer (50 mM NaOAc with pH 5.0, 50 mM NaCl and 50 mM MgCl2) was added to terminate the enzymatic reaction. After additional incubation for 30 min at rt, during which biotinoligonucleotide-plasmid triplex was formed, the unbound plasmid was washed off using TF buffer and SybrGOLD in T10 buffer (10 mM Tris HCl with pH 8.0 and 1 mM EDTA) was added. The fluorescence was measured with a microplate reader (BioTek Synergy H4, excitation: 485 nm, emission: 535 nm). Initial screening was done at 100 or 10 μM concentration of inhibitors. […] GraphPad Prism software was used to calculate the IC50 values. The result is given as the average value of three independent measurements.

[1] = system: Mycobacterium tuberculosis H37Rv strain; experiment: Anti-tubercular properties (alamar blue microplate MIC); type: cell-based; conditions: 168 h, seven days at 37° C., read-out: anti-mycobacterial activity (MIC)
[2] = system: Klebsiella pneumonia MTCC 618; experiment: In vitro antibacterial activity (MIC, CLSI M07-A10 dilution); type: cell-based; conditions: Klebsiella pneumoniae, MTCC618
[3] = system: Pseudomonas aeruginosa MTCC 741; experiment: as above; type: cell-based; conditions: MTCC741
[4] = system: Staphylococcus aureus ATCC 29213; experiment: as above; type: cell-based; conditions: ATCC29213
[5] = system: Enterococcus faecium ATCC 35667; experiment: as above; type: cell-based; conditions: ATCC35667
[6] = system: Bacillus subtilis MTCC 441; experiment: as above; type: cell-based; conditions: MTCC441
[7] = system: Escherichia coli MTCC 443; experiment: as above; type: cell-based; conditions: MTCC443
[8] = system: Staphylococcus epidermidis; experiment: as above; type: cell-based
[9] = system: Staphylococcus aureus ATCC BAA-1556 (MERSA resistant); experiment: as above; type: cell-based; conditions: ATCCBAA1556
[10] = system: Enterococcus faecium ATCC 51559 (VRE resistant); experiment: as above; type: cell-based

T1 sequence (P0AES4 whole entry, one chain of several): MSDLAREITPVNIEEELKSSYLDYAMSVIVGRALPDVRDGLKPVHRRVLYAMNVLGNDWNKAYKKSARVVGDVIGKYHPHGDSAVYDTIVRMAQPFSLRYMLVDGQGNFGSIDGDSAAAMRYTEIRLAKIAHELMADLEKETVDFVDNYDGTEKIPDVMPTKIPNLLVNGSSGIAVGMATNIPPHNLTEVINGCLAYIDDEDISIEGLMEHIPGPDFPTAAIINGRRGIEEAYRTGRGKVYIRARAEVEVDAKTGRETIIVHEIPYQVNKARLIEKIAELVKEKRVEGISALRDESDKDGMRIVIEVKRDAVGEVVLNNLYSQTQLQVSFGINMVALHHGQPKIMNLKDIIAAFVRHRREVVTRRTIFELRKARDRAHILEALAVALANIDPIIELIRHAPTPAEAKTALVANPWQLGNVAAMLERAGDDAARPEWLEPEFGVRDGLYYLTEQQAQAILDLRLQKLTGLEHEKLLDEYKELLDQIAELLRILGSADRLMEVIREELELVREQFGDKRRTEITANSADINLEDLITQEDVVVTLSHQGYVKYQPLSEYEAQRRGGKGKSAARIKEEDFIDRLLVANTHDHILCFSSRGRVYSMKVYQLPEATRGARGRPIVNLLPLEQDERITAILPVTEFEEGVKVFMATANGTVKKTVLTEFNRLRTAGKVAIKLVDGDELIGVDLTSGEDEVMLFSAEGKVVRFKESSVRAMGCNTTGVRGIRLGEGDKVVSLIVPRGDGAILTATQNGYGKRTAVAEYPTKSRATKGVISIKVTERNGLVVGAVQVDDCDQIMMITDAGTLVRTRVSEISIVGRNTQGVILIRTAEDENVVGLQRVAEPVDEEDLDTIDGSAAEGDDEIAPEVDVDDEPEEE

Compound: CNc1cc(F)cc2cc3[nH]c(-c4ccc(C(=O)O)cc4CN(C)C4CCCCC4)cc3nc12 [Compound 4, 3-((cyclohexyl(methyl)amino)methyl)-4-(7-fluoro-5-(methylamino)-1H-pyrrolo[3,2-b]quinolin-2-yl)benzoic acid]
- IC50 (DNA gyrase from E. coli): 32 nM
- MIC [1]: 8 µg/mL (≈ 17.4 µM)

Compound: CN[C@H](CC(C)C)C(=O)N[C@H]1C(=O)N[C@@H](CC(N)=O)C(=O)N[C@H]2C(=O)N[C@H]3C(=O)N[C@H](C(=O)N[C@H](C(=O)O)c4cc(O)cc(O)c4-c4cc3ccc4O)[C@H](O)c3ccc(c(Cl)c3)Oc3cc2cc(c3O[C@@H]2O[C@H](CO)[C@@H](O)[C@H](O)[C@H]2O[C@H]2C[C@](C)(N)[C@H](O)[C@H](C)O2)Oc2ccc(cc2Cl)[C@H]1O [Vancomycin, reference compound]
- MIC [2]: > 128 µg/mL

Compound: CCCCCN(C)Cc1cc(C(=O)O)ccc1-c1cc2nc3c(NC)cc(F)cc3cc2[nH]1 [Compound 6, 4-(7-fluoro-5-(methylamino)-1H-pyrrolo[3,2-b]quinolin-2-yl)-3-((methyl(pentyl)amino)methyl)benzoic acid]
- MIC ([2]; Klebsiella pneumonia MTCC 618, read-out: MIC): 1.25 µg/mL (≈ 2.79 µM)
- MIC [3]: 1 µg/mL (≈ 2.23 µM)
- MIC [4]: 1 µg/mL (≈ 2.23 µM)
- MIC [5]: 1 µg/mL (≈ 2.23 µM)
- MIC [6]: 0.75 µg/mL (≈ 1.67 µM)
- MIC [7]: 8 µg/mL (≈ 17.8 µM)
- MIC [8]: 1 µg/mL (≈ 2.23 µM)
- MIC [9]: 1 µg/mL (≈ 2.23 µM)
- MIC [10]: 1.25 µg/mL (≈ 2.79 µM)
